biological target: T1, baculoviral GST-MLK1KD (Homo sapiens, UniProt P80192); assay: Mixed Lineage Kinase-1 inhibition assay (Millipore Multiscreen TCA in-plate, 32P); assay type: biochemical; conditions: 1 uM compound; 60 μM ATP
T1 construct: 1 μg/ml of baculoviral GST-MLK1KD; GST (N); host or cells: baculovirus expression system
Description: Inhibition of Mixed Lineage Kinase-1 Activity
The kinase activity of MLK1 was assessed using the Millipore Multiscreen TCA “in-plate” format as described for protein kinase C (Pitt & Lee, J. Biomol. Screening, 1: 47-51, 1996). Briefly, each 50-μl assay mixture contained 20 mM Hepes, pH 7.0, 1 mM EGTA, 10 mM MgCl2, 1 mM DTT, 25 mM β-glycerophosphate, 60 μM ATP, 0.25 μCi [γ-^32P]ATP, 0.1% BSA, 500 μg/ml myelin basic protein (UBI #13-104), 2% DMSO, 1 μM of test compound, and 1 μg/ml of baculoviral GST-MLK1KD. Samples were incubated for 15 min at 37° C. The reaction was stopped by adding ice cold 50% TCA and the protein were allowed to precipitate for 30 min at 4° C. The plates were then washed with ice cold 25% TCA. Supermix scintillation cocktail was added, and the plates were allowed to equilibrate for 1-2 hours prior to counting using the Wallac MicroBeta 1450 PLUS scintillation counter.

T1 sequence (P80192 144-412 limits assumed): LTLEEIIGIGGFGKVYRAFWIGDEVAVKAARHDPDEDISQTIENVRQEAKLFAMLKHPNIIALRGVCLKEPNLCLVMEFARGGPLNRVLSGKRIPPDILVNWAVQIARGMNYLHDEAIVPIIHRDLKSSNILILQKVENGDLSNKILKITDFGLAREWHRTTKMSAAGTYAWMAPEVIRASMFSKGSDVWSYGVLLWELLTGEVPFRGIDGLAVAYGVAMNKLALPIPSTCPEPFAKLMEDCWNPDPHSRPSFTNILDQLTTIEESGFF

Compound	MLK-1 Kinase % inhibition @ 1 uM [%]
CCc1c(C=C2C(=O)NN=C2c2ccoc2)[nH]c(C(=O)OCc2ccccc2)c1C [Compound 5]	14
O=C1NN=C(c2ccco2)C1=Cc1c[nH]c2ccc(Cl)cc12 [Compound 49]	−10
Cc1cccc2c(C=C3C(=O)NN=C3c3ccco3)c[nH]c12 [Compound 47]	33
Cc1nc[nH]c1C=C1C(=O)NN=C1c1ccco1 [Compound 53]	7
O=C1NN=C(c2cc3ccccc3o2)C1=Cc1c[nH]c2ccccc12 [Compound 58]	44
CC(C)Cn1cc(C=C2C(=O)NN=C2c2nccs2)c2ccccc21 [Compound 73]	−1
Cc1[nH]c(C=C2C(=O)NN=C2c2ccoc2)c(Br)c1Br [Compound 8]	15
O=C1NN=C(c2ccoc2)C1=Cc1c[nH]c2cccc(OCc3ccccc3)c12 [Compound 18]	14
Cn1cc(C=C2C(=O)NN=C2c2cc3ccccc3o2)c2ccccc21 [Compound 59]	41
O=C1NN=C(c2ccoc2)C1=Cc1cn(Cc2ccccc2)c2ccccc12 [Compound 68]	17
Cn1ccc(C2=NNC(=O)C2=Cc2c[nH]c3cccc(OCc4ccccc4)c23)c1 [Compound 31]	27
O=C1NN=C(c2ccoc2)C1=CC=C(c1ccccc1)c1ccccc1 [Compound 4]	9
Cc1cc(C)c(C=C2C(=O)NN=C2C2c3ccccc3Oc3ccccc32)[nH]1 [Compound 2]	−8
O=C1NN=C(c2nccs2)C1=Cc1cn(Cc2ccccc2)c2ccccc12 [Compound 70]	21

same assay, conditions: read-out: MLK-1 Kinase % inhibition @ 1 uM

Compound	inhibition at 1 µM [%]
Cc1cc(C)c(C=C2C(=O)NN=C2c2ccco2)[nH]1 [Compound 28, 4-[(3,5-dimethylpyrrol-2-yl)methylene]-3-(2-furyl)-2-pyrazolin-5-one]	2
Cc1cc(C)c(C=C2C(=O)NN=C2c2ccsc2)[nH]1 [Compound 37, 4-[(3,5-dimethylpyrrol-2-yl)methylene]-3-(3-thienyl)-2-pyrazolin-5-one]	15

biological target: T2, recombinant human baculovirus-expressed FGFR1 cytoplasmic domain (Homo sapiens, UniProt P11362); assay: FGFR1 kinase inhibition assay (ELISA-based, time-resolved fluorescence); assay type: biochemical; conditions: 1 uM compound; 20 μM ATP
T2 construct: recombinant human baculovirus-expressed FGFR1 cytoplasmic domain; host or cells: baculovirus expression system
T2 sequence (P11362 398-822 limits assumed): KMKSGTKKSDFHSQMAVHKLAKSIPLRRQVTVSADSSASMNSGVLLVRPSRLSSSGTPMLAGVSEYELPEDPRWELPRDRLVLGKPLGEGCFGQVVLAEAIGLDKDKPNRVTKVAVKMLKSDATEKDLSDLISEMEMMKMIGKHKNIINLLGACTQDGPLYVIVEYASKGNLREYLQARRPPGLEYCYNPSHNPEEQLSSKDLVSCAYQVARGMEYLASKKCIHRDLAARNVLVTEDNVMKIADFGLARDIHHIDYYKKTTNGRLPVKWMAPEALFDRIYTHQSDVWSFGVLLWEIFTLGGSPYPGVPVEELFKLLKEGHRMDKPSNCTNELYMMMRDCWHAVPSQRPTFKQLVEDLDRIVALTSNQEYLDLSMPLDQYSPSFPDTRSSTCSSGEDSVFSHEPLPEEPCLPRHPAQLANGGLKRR
Description: Inhibition of Fibroblast Growth Factor Receptor-1 (FGFR1) Kinase Activity
The FGFR1 kinase activity was measured using an ELISA-based format in a 96-well FluoroNUNC Maxisorp plate with a time-resolved fluorescence readout as described for trkA kinase. The plate was coated with 100 μl/well of substrate solution (recombinant human PLC-γ/GST) at a concentration of 10 μg/ml in Tris buffered saline (TBS). The FDGFR1 activity was assayed in 100-μl assay micture containing 50 mM HEPES (pH 7.4), 20 μM ATP, 10 mM MnCl2, 0.1% BSA, 2% DMSO, and 15 ng/ml recombinant human baculovirus-expressed FGFR1 cytoplasmic domain (prephosphorylated prior to use). Compounds were screened for inhibition of the FGFR1 kinase activity at a conentration of 1 μM. The kinase reaction was allowed to proceed at 37° C. for 15 minutes. The detection antibody, europium-labeled anti-phosphotyrosine antibody (Wallace #CR04-100), was added at 1:5000 dilution in block buffer (3% BSA in TBST). After a 1-hour incubation at 37° C., 100 μl of enhancement solution (Wallac #1244-105) and the plate was gently agitated. After 5 min, the fluorescence of the resulting solutions measured using the BMG Fluostar (Model # 403).

Compound	inhibition at 1 µM [%]	FGFR1 % inhibition @ 1 uM [%]
Cc1cc(C)c(C=C2C(=O)NN=C2c2ccco2)[nH]1 [Compound 28, 4-[(3,5-dimethylpyrrol-2-yl)methylene]-3-(2-furyl)-2-pyrazolin-5-one]	37	
CCc1c(C=C2C(=O)NN=C2c2ccoc2)[nH]c(C(=O)OCc2ccccc2)c1C [Compound 5]		−2
O=C1NN=C(c2ccco2)C1=Cc1c[nH]c2ccc(Cl)cc12 [Compound 49]		39
Cc1cc(C)c(C=C2C(=O)NN=C2c2ccsc2)[nH]1 [Compound 37, 4-[(3,5-dimethylpyrrol-2-yl)methylene]-3-(3-thienyl)-2-pyrazolin-5-one]	32	
Cc1cccc2c(C=C3C(=O)NN=C3c3ccco3)c[nH]c12 [Compound 47]		32
Cc1nc[nH]c1C=C1C(=O)NN=C1c1ccco1 [Compound 53]		50
O=C1NN=C(c2cc3ccccc3o2)C1=Cc1c[nH]c2ccccc12 [Compound 58]		24
CC(C)Cn1cc(C=C2C(=O)NN=C2c2nccs2)c2ccccc21 [Compound 73]		19
Cc1[nH]c(C=C2C(=O)NN=C2c2ccoc2)c(Br)c1Br [Compound 8]		24
O=C1NN=C(c2ccoc2)C1=Cc1c[nH]c2cccc(OCc3ccccc3)c12 [Compound 18]		22
Cn1cc(C=C2C(=O)NN=C2c2cc3ccccc3o2)c2ccccc21 [Compound 59]		29
O=C1NN=C(c2ccoc2)C1=Cc1cn(Cc2ccccc2)c2ccccc12 [Compound 68]		27
Cn1ccc(C2=NNC(=O)C2=Cc2c[nH]c3cccc(OCc4ccccc4)c23)c1 [Compound 31]		17
O=C1NN=C(c2ccoc2)C1=CC=C(c1ccccc1)c1ccccc1 [Compound 4]		20
Cc1cc(C)c(C=C2C(=O)NN=C2C2c3ccccc3Oc3ccccc32)[nH]1 [Compound 2]		33
O=C1NN=C(c2nccs2)C1=Cc1cn(Cc2ccccc2)c2ccccc12 [Compound 70]		21

biological target: T3, baculoviral GST-MLK2KDLZ (Homo sapiens, UniProt Q02779); assay: Mixed Lineage Kinase-2 inhibition assay (Millipore Multiscreen plate, 32P); assay type: biochemical; conditions: 1 uM compound; 100 μM ATP
T3 construct: 3 μg/ml of baculoviral GST-MLK2KDLZ; GST (N); host or cells: baculovirus expression system
T3 sequence (Q02779 98-440 limits assumed): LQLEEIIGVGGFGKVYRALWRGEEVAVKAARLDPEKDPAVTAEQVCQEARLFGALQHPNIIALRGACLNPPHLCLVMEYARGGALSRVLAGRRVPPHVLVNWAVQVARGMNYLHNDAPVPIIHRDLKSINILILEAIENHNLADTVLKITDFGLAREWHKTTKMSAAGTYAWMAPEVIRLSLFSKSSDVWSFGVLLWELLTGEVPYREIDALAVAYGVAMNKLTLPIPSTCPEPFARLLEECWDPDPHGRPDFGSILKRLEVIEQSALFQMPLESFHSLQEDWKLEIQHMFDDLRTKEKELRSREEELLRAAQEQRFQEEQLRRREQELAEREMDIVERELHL
Description: Inhibition of Mixed Lineage Kinase-2 Activity
Assays were performed using the Millipore Multiscreen plate format as described for MLK1. Each 50-μl assay mixture contained 20 mM Hepes, pH 7, 1 mM EGTA, 10 mM MgCl2, 1 mM DTT, 25 mM β-glycerophosphate, 100 μM ATP, 0.25 μCi [γ-^32P]ATP, 0.1% BSA, 500 μg/ml myelin basic protein (UBI #13-104), 2% DMSO, various concentrations of test compound, and 3 μg/ml of baculoviral GST-MLK2KDLZ. Samples were incubated for 15 min. at 37° C. The reaction was stopped by adding ice cold 50% TCA and the proteins were allowed to precipitate for 30 min at 4° C. The plates were then washed with ice cold 25% TCA Supermix scintillation cocktail was added, and the plates were allowed to equilibrate for 1-2 hours prior to counting.

Compound	MLK-2 Kinase % inhibition @ 1 uM [%]
CCc1c(C=C2C(=O)NN=C2c2ccoc2)[nH]c(C(=O)OCc2ccccc2)c1C [Compound 5]	9
O=C1NN=C(c2ccco2)C1=Cc1c[nH]c2ccc(Cl)cc12 [Compound 49]	3
Cc1cccc2c(C=C3C(=O)NN=C3c3ccco3)c[nH]c12 [Compound 47]	−2
Cc1nc[nH]c1C=C1C(=O)NN=C1c1ccco1 [Compound 53]	−13
O=C1NN=C(c2cc3ccccc3o2)C1=Cc1c[nH]c2ccccc12 [Compound 58]	4
CC(C)Cn1cc(C=C2C(=O)NN=C2c2nccs2)c2ccccc21 [Compound 73]	12
Cc1[nH]c(C=C2C(=O)NN=C2c2ccoc2)c(Br)c1Br [Compound 8]	0
O=C1NN=C(c2ccoc2)C1=Cc1c[nH]c2cccc(OCc3ccccc3)c12 [Compound 18]	−2
Cn1cc(C=C2C(=O)NN=C2c2cc3ccccc3o2)c2ccccc21 [Compound 59]	−8
O=C1NN=C(c2ccoc2)C1=Cc1cn(Cc2ccccc2)c2ccccc12 [Compound 68]	16
Cn1ccc(C2=NNC(=O)C2=Cc2c[nH]c3cccc(OCc4ccccc4)c23)c1 [Compound 31]	0
O=C1NN=C(c2ccoc2)C1=CC=C(c1ccccc1)c1ccccc1 [Compound 4]	−10
Cc1cc(C)c(C=C2C(=O)NN=C2C2c3ccccc3Oc3ccccc32)[nH]1 [Compound 2]	−10
O=C1NN=C(c2nccs2)C1=Cc1cn(Cc2ccccc2)c2ccccc12 [Compound 70]	5

same assay, conditions: 1 uM compound; 100 μM ATP; read-out: MLK-2 Kinase % inhibition @ 1 uM

Compound	inhibition at 1 µM [%]
Cc1cc(C)c(C=C2C(=O)NN=C2c2ccco2)[nH]1 [Compound 28, 4-[(3,5-dimethylpyrrol-2-yl)methylene]-3-(2-furyl)-2-pyrazolin-5-one]	10
Cc1cc(C)c(C=C2C(=O)NN=C2c2ccsc2)[nH]1 [Compound 37, 4-[(3,5-dimethylpyrrol-2-yl)methylene]-3-(3-thienyl)-2-pyrazolin-5-one]	12
